Here are results for three molecules from patent US9566311B2, “Pharmaceutical composition” (Ferring B.V., priority 2010, dated 2017).

The conditions of series [1]: in vivo, cited from earlier work.
Series [2] can be described thus: Stability of FE 202767 in various buffers at 40° C./75% RH for one and three months, HPLC. The series is classed as physicochemical. The procedure:
The method was similar to Example 7. FE 202767 (Ferring) was synthesised by the method set out in WO2009/122285. The FE 202767 was dissolved at a concentration of 0.2 mg/ml in either 25 mM citrate buffer (citric acid/Na citrate), 10 mM acetate buffer (acetic acetate/Na acetate) or 10 mM succinate buffer (1 mM succinic acid+NaOH to relevant pH) at varying pH (pH 5.0, 5.2, 5.5, 5.65, 5.8, 6.0), by methods known in the art. As set out in the table below, the various samples also included isotonicity agent (NaCl, 7 mg/mL or mannitol 47 mg/mL) to achieve isotonicity. Some of the samples included […] (methionine 1 mg/mL, EDTA 1 mg/mL, or combination of EDTA 1 mg/mL and methionine 1 mg/mL). Each formulation (see Table below) was filled in a 10R glass vial sealed with a rubber stopper and an aluminium cap.
The solutions were incubated at 40° C. at 75% RH, with samples taken at day 30 (1 month), and day 90 (3 months).
Samples were evaluated by HPLC to determine the amount of intact peptide remaining at the various time points, by methods well known in the art, comparing the % Area of the intact peptide peak on the sampling day vs. % Area on Day 0.
The HPLC method used an Agilent 1100 instrument. The mobile phases where HPLC Buffers A (A=0.1% TFA in water) and B (B=0.1% TFA in acetonitrile) with the gradient 20 to 30% B in 40 min, then 30 to 60% B in 15 min, then 60 to 20% B in 1 min and then 20% B for 10 min at flow rate 0.5 mL/min. The Zorbax 300SB C16, 3.0×150 mm, 3.5 μm, 300 Å column was at temperature 25 with UV detection at 214 nm. The injection volume was 15 μL

Series [3] is described as follows: Stability of FE 202767 in citrate and citrate-phosphate buffers at 40° C., intact peptide by HPLC. The series is classed as physicochemical. The procedure:
FE 202767 (Ferring) was synthesised by the method set out in WO2009/122285. FE 202767 was dissolved at a concentration of 0.2 mg/ml in either 25 mM citrate buffer (isotonic to saline) or 25 mM citrate-phosphate buffer (isotonic with saline) at varying pH (pH 5.0, 5.5, 6.0), by methods known in the art. The solutions were incubated at 40° C. for 176 days, with samples taken at day 0, 15, 30, 84, and 176.
Samples were evaluated by HPLC to determine the amount of intact peptide remaining at the various time points, by methods well known in the art, comparing the % Area. of the intact peptide peak on the sampling day vs. % Area on Day 0.
The HPLC method used an Agilent 1200 instrument. […] The Phenomenex MAX-RP C18, 2.0×150 mm, 4 μm, 80 Å column was at temperature 40 with UV detection at 210 nm. The injection volume was 10 μL.

Numbered stars: 1 amine (or outer) side, 2 acyl side, 3 side chain; on linkers, the order of the positions; unused ones are H or OH. Bridge positions count the residues as written; N and C are the ends. Peptide text beside a SMILES is read from it. X1 = O=C(CCC[*:2])[*:1]

As usually defined, the bioavailability is the share of a dose that reaches the circulation, judged against a reference dose that is usually intravenous.

Consider `CC[C@H](C)[C@@H]1NC(=O)[C@H](Cc2ccc(OC)cc2)NC(=O)CCCSC[C@@H](C(=O)N2CCC[C@H]2C(=O)N[C@@H](CC(C)C)C(=O)NCC(N)=O)NC(=O)[C@H](CC(N)=O)NC(=O)[C@H](CCC(N)=O)NC1=O` [carbetocin, (1-desamino-1-monocarba-2(O-methyl)-tyrosine)oxytocin] (Y(Me)IQNCPLG-NH2; linker N-5 via X1), for which, in series [1] (human, im), the bioavailability is reported as 80%. Moreover, the half-life entry in series [1] (human, iv) was “approximately 40 minutes”. In addition, the “half-life relative to the reported half-life of oxytocin” value in series [1] (iv) is given as 4 to 10 times longer. For the same molecule, the “time to peak plasma concentrations” value in series [1] is listed as “less than thirty minutes”.
With `CC[C@H](C)[C@@H]1NC(=O)[C@H](Cc2ccc(O)cc2)NC(=O)[C@@H](N)CSSC[C@@H](C(=O)N2CCC[C@H]2C(=O)N[C@@H](CC(C)C)C(=O)NCC(N)=O)NC(=O)[C@H](CC(N)=O)NC(=O)[C@H](CCC(N)=O)NC1=O` [oxytocin], the reported half-life in series [1] is 4 to 10 min.
On to carba-1-[4-FBzIGly^7]dOT [FE 202767], for which the “stability (in words)” value in series [2] (citrate and acetate buffers in the pH range tested, after 30 days at 40° C.) is on record as “good stability”; in series [2] (citrate and acetate buffers in the pH range tested, after 90 days at 40° C.), “good stability”; in series [2] (succinate buffer at pH 5.0 to 5.65, after 30 days at 40° C.), “very stable”; in series [2] (succinate buffer at pH 5.0 to 5.65, after 90 days at 40° C.) it was “stable”. The intact peptide remaining in series [3] (after 176 days at 40° C. in citrate buffer at pH 5.0 and 5.5) was > 95%; in series [3] (after 176 days at 40° C. in citrate-phosphate buffers, pH 5.0, 5.5 and 6.0, each condition) it was > 95%. For the same molecule, the “degradation (in words)” value in series [3] (after 176 days at 40° C. in pH 6.0 citrate buffer) is reported as “significant degradation”.
